Measured values reported in US20190290623A1, “USE OF TIOTROPIUM BROMIDE TO PREVENT PULMONARY OXYGEN TOXICITY” (priority 2018, published 2019).

How the values were obtained:
[1] = tested on: swine exposed to 1.5 ATA hyperbaric oxygen for 17.5 hr; assay: Experiment 1 shallow exposure simulation: pulmonary compliance; format: in vivo; conditions: 1.5 ATA O2 17.5 hr; 18 mcg nebulized pre-dive; n=7; p=0.8364
Method: Experiment 1 is designed to evaluate the efficacy of tiotropium bromide administered pre-dive in reducing decrements in pulmonary function due to PO2T following a 17.5 hour, 1.5 ATA hyperbaric oxygen exposure. This dive profile was selected because it was of sufficient duration to elicit persistent pulmonary function decrement in humans.
The swine were anesthetized with propofol (20 cc, I.V. target, adjusted as needed to optimize sedation), intubated and ventilated. Anesthetized swine were shaved, then ECG and EEG electrodes were placed. Animals were then paralyzed with Atracurium Besylate (50 mg, IV) for accurate pulmonary function measurements of quasi-static and dynamic compliance.
Following baseline pulmonary function measurements, the swine were randomized to receive equivalent volumes of normal saline or tiotropium bromide (18 mcg) via nebulizer. The swine were then ventilated until muscle tone was regained. […]
Next, the swine were switched to 100% oxygen breathing gas and remained at 1.5 ATA for 17.5 hr. […] When fully sedated, the swine were ventilated, paralyzed with Atracurium Besylate, and post-dive measurements of pulmonary function were recorded. During all phases of study the swine were continuously monitored for signs of seizure or distress. […]

[2] = tested on: swine exposed to 2.5 ATA hyperbaric oxygen for 5.5 hr; assay: Experiment 2: heart rate variability (SDNN); format: in vivo; conditions: 2.5 ATA O2 5.5 hr; mean+/−SEM; p=0.0331 vs saline
Method: The swine were prepared for ECG recording as described previously. Briefly, using an electric shaver, ECG areas were prepared bilaterally, posterior to the shoulder, lateral to the vertebrae, at approximately 4-7 cm above ribs 5-7 (bipolar derivation). Another area was prepared 2 cm lateral to the vertebrae on right side, between ribs 12-13. Newly exposed skin was rubbed with isopropyl alcohol. Disposable pre-wired (Grass Technologies/Astro-Med, Inc. Warwick, Mass.) or SF405 (KENDALL MEDI-TRACE™, Tyco Healthcare, Mansfield, Mass.) self-adhesive Ag/AgCl electrodes were placed on the proximal, symmetric sites and the ground electrode was placed at the distal site (between ribs 12-13). […]
Wideband AC amplifiers (Grass, Quincy, Mass.) were used for EEG and ECG recordings; a 0.5-35 Hz and 60 cycle notch filter setting was used. […] Heart rate variability (HRV) was calculated from pre-dive ECG epochs of at least 2 min durations using the Labchart ECG tool suite. […] Above the manually set trigger level the LabChart software looked for maximum values and measured the time interval between peaks (maximal amplitude of R-wave). […] The length of measured periods were: (1) 114.995 sec; peak-to-peak distance 0.750 t 0.0004 sec; 153 peaks; FFT 1.329 Hz=79.74 bpm; and (2) 326.52 sec; peak-to-peak distance 0.750±0.0003; 434 peaks; FFT 1.332 Hz=79.92 bpm. […]

C[N+]1(C)[C@@H]2C[C@@H](OC(=O)C(O)(c3cccs3)c3cccs3)C[C@H]1[C@@H]1O[C@@H]12 [Tiotropium, tiotropium bromide]
pulmonary compliance, baseline vs post-dive [1]: no significant changes | Post-dive SDNN normalized to the pre-dive SDNN [2]: 103.5+/−15.87
